# Test results published in patent US20060079512A1, “Dibenzodiazepinone analogues, processes for their production and their use as pharmaceuticals” (Ecopia BioSciences, Inc., priority 2003, published 2006).
# Tests used:
# Format in all cases: cell-based
# SF268 (CNS) [1] = assay: In vitro cytotoxic activity (GI50), method (a), propidium iodide; settings: read-out: SF-268 (GI50 μM)
# Description: (§1) Compounds were dissolved at 10 mM in DMSO. Dilution in vehicle to concentrations of 30, 10, 3, 1 and 0.3 μM were prepared immediately before assays. Depending on the cell line's growth characteristics, 4000-10000 cells were plated in two 96-wells pates (day 0) and incubated for 16 hours. The following day, propidium iodide was added to one of the two plates and fluorescence measured (Tz). Test compounds were added to the second plate, as well as vehicle control, and cells further incubated for 96 hours. Each compound was tested at each concentration and in triplicates. The equivalent cell number was determined after adding propidium iodide by measuring the signal by fluorescence (C for control).
# [2] = tested on: MDA-MB-231 (mammary gland adenocarcinoma); assay: as above; settings: read-out: MDA-MB-231 (GI50 μM)
# Description: as §1
# [3] = tested on: PC-3 (prostate adenocarcinoma); assay: as above; settings: read-out: PC-3 (GI50 μM)
# Description: as §1
# [4] = tested on: HT-29 (colorectal carcinoma); assay: as above; settings: read-out: HT-29 (GI50 μM)
# Description: as §1
# [5] = tested on: HT-29, SF-268, PC-3, MDA-MB-231; assay: Average GI50 over the four cell lines, method (a); settings: for GI50: read-out: Average (GI50 μM); for anticancer activity compared with Compound 1: four cell lines
# Description: as §1
# SF268 (CNS) [6] = assay: In vitro cytotoxic activity (GI50), method (b), propidium iodide; settings: Homo sapiens, SF-268, 96 hrs
# Description: (§2) Row H was filled wih medium only (150 μL, negative control-medium).
# [7] = tested on: MDA-MB-231 (mammary gland adenocarcinoma); assay: as above; settings: Homo sapiens, 96 hrs
# Description: as §2
# [8] = tested on: PC-3 (prostate adenocarcinoma); assay: as above; settings: 96 hrs
# Description: as §2
# [9] = tested on: HT-29 (colorectal carcinoma); assay: as above; settings: Homo sapiens, 96 hrs
# Description: as §2
# [10] = tested on: HT-29, SF-268, PC-3, MDA-MB-231; assay: Average GI50 over the four cell lines, method (b); settings: for anticancer activity compared with Compound 1: four cell lines; for GI50: values > 30 not considered
# Description: as §2
# [11] = Homo sapiens, SF-268, method (a), 96 hours
# [12] = Homo sapiens, MDA-MB-231, method (a), 96 hours
# [13] = Homo sapiens, HT-29, method (a), 96 hours
# [14] = method (a), values > 30 not considered
smiles,measurement,setting,value
"CC(C)=CCC/C(C)=C/CC/C(C)=C/CN1C(=O)c2cccc(O)c2N(Cc2ccccc2)c2c(O)cc(O)cc21 [Compound 3, 5-benzyl-10-farnesyl-4,6,8-trihydroxy-5,10-dihydro-dibenzo[b,e][1,4]diazepin-11-one]",GI50,SF268 (CNS) [1]; [11],5.73 µM
same,GI50,[2]; [12],6.32 µM
same,GI50,"[3]; method (a), 96 hours",5.36 µM
same,GI50,[4]; [13],7.3 µM
same,GI50,[5]; [14],6.18 µM
"COc1cccc2c1Nc1c(O)cc(O)cc1N(C/C=C(\C)CC/C=C(\C)CCC=C(C)C)C2=O [Compound 4, 10-farnesyl-6,8-dihydroxy-4-methoxy-5,10-dihydro-dibenzo[b,e][1,4]diazepin-11-one]",GI50,SF268 (CNS) [1]; [11],4.97 µM
same,GI50,[2]; [12],11.3 µM
same,GI50,"[3]; method (a), 96 hours",5.86 µM
same,GI50,[4]; [13],14.7 µM
same,GI50,[5]; [14],9.2 µM
"COc1cc(O)cc2c1Nc1c(O)cccc1C(=O)N2C/C=C(\C)CC/C=C(\C)CCC=C(C)C [Compound 5, 10-farnesyl-4,8-dihydroxy-6-methoxy-5,10-dihydro-dibenzo[b,e][1,4]diazepin-11-one]",GI50,SF268 (CNS) [1]; [11],13.4 µM
same,GI50,[2]; [12],20.5 µM
same,GI50,"[3]; method (a), 96 hours",15.6 µM
same,GI50,[4]; [13],14.4 µM
same,GI50,[5]; [14],16 µM
"COc1cc(OC)c2c(c1)N(C/C=C(\C)CC/C=C(\C)CCC=C(C)C)C(=O)c1cccc(O)c1N2 [Compound 6, 10-farnesyl-4-hydroxy-6,8-dimethoxy-5,10-dihydro-dibenzo[b,e][1,4]diazepin-11-one]",GI50,SF268 (CNS) [1]; [11],18.9 µM
same,GI50,[2]; [12],24.6 µM
same,GI50,"[3]; method (a), 96 hours",19 µM
same,GI50,[4]; [13],> 30 µM
same,GI50,[5]; [14],20.8 µM
"COc1cccc2c1Nc1c(OC)cc(O)cc1N(CC=C(C)CCC=C(C)CCC=C(C)C)C2=O [Compound 7, 10-farnesyl-8-hydroxy-4,6-dimethoxy-5,10-dihydro-dibenzo[b,e][1,4]diazepin-11-one]",GI50,SF268 (CNS) [1]; [11],18.5 µM
same,GI50,[2]; [12],17.4 µM
same,GI50,"[3]; method (a), 96 hours",14.6 µM
same,GI50,[4]; [13],14.1 µM
same,GI50,[5]; [14],16.1 µM
"CC(=O)Oc1cc(OC(C)=O)c2c(c1)N(CC=C(C)CCC=C(C)CCC=C(C)C)C(=O)c1cccc(O)c1N2 [Compound 9, 6,8-diacetoxy-10-farnesyl-4-hydroxy-5,10-dihydro-dibenzo[b,e][1,4]diazepin-11-one]",GI50,"SF268 (CNS) [1]; Homo sapiens, SF-268, 96 h",1.88 µM
same,GI50,"[2]; Homo sapiens, MDA-MB-231, 96 h",2.48 µM
same,GI50,[3]; 96 h,1.44 µM
same,GI50,"[4]; Homo sapiens, HT-29, 96 h",12.6 µM
same,GI50,[5],4.6 µM
"CC(=O)Oc1cccc2c1Nc1c(OC(C)=O)cc(O)cc1N(CC=C(C)CCC=C(C)CCC=C(C)C)C2=O [Compound 10, 4,6-diacetoxy-10-farnesyl-8-hydroxy-5,10-dihydro-dibenzo[b,e][1,4]diazepin-11-one]",GI50,"SF268 (CNS) [1]; Homo sapiens, SF-268, 96 h",2.02 µM
same,GI50,"[2]; Homo sapiens, MDA-MB-231, 96 h",1.55 µM
same,GI50,[3]; 96 h,1.35 µM
same,GI50,"[4]; Homo sapiens, HT-29, 96 h",13 µM
same,GI50,[5],4.48 µM
"CC(=O)Oc1cc(O)c2c(c1)N(CC=C(C)CCC=C(C)CCC=C(C)C)C(=O)c1cccc(OC(C)=O)c1N2 [Compound 11, 4,8-diacetoxy-10-farnesyl-6-hydroxy-5,10-dihydro-dibenzo[b,e][1,4]diazepin-11-one]",GI50,"SF268 (CNS) [1]; Homo sapiens, SF-268, 96 h",5.79 µM
same,GI50,"[2]; Homo sapiens, MDA-MB-231, 96 h",7.72 µM
same,GI50,[3]; 96 h,5.35 µM
same,GI50,"[4]; Homo sapiens, HT-29, 96 h",16 µM
same,GI50,[5],8.72 µM
"CC(=O)Oc1cc(OC(C)=O)c2c(c1)N(CC=C(C)CCC=C(C)CCC=C(C)C)C(=O)c1cccc(OC(C)=O)c1N2 [Compound 12, 4,6,8-triacetoxy-10-farnesyl-5,10-dihydro-dibenzo[b,e][1,4]diazepin-i 1-one]",GI50,"SF268 (CNS) [1]; method (a), 96 hours",1.95 µM
same,GI50,"[2]; method (a), 96 hours",2.79 µM
same,GI50,"[3]; method (a), 96 hours",1.2 µM
same,GI50,"[4]; method (a), 96 hours",9.33 µM
same,anticancer activity compared with Compound 1,[5]; method (a),generally more active than Compound 1
same,GI50,[5]; [14],3.82 µM
"CC(C)CCCC(C)CCCC(C)CCN1C(=O)c2cccc(O)c2Nc2c(O)cc(O)cc21 (centres unmarked) [Compound 46, 10-(3,7,11-trimethyldodecyl)-4,6,8-trihydroxy-5,10-dihydro-dibenzo[b,e][1,4]diazepin-11-one]",GI50,SF268 (CNS) [1]; [11],0.72 µM
same,GI50,[2]; [12],0.59 µM
same,GI50,"[3]; method (a), 96 hours",0.9 µM
same,GI50,[4]; [13],4.26 µM
same,anticancer activity compared with Compound 1,[5]; method (a),generally more active than Compound 1
same,GI50,[5]; [14],1.62 µM
"[2H]C([2H])([2H])N1c2c(O)cccc2C(=O)N(C/C=C(\C)CC/C=C(\C)CCC=C(C)C)c2cc(O)cc(O)c21 [Compound 98, 10-Farnesyl-4,6,8-trihydroxy-5-(trideuteriomethyl)-5,10-dihydro-dibenzo[b,e][1,4]diazepin-11-one]",GI50,SF268 (CNS) [6],0.16 µM
same,GI50,[7],0.51 µM
same,GI50,[8],0.82 µM
same,GI50,[9],0.69 µM
same,anticancer activity compared with Compound 1,[10],better anticancer activity than Compound 1
same,GI50,[10],0.54 µM
"C/C(=C\CN1C(=O)c2cccc(O)c2N(C)c2c(O)cc(O)cc21)CCCC(C)CCCC(C)C (centres unmarked) [Compound 100, 10-(3,7,11-trimethyl-2-dodecenyl)-4,6,8-trihydroxy-5-methyl-5,10-dihydro-dibenzo[b,e][1,4]diazepin-11-one]",GI50,SF268 (CNS) [6],0.23 µM
same,GI50,[7],0.37 µM
same,GI50,[8],0.65 µM
same,GI50,[9],0.69 µM
same,anticancer activity compared with Compound 1,[10],better anticancer activity than Compound 1
same,GI50,[10],0.49 µM
"CCOC(=O)CN1c2c(O)cccc2C(=O)N(C/C=C(\C)CC/C=C(\C)CCC=C(C)C)c2cc(O)cc(O)c21 [Compound 101, (10-Farnesyl-4,6,8-trihydroxy-5,10-dihydrodibenzo[b,e][1,4]diazepin-11-on-5-yl)acetic acid ethyl ester]",GI50,SF268 (CNS) [6],3.27 µM
same,GI50,[7],3.67 µM
same,GI50,[8],8.73 µM
same,GI50,[9],18.2 µM
same,GI50,[10],8.47 µM
"CC(C)=CCC/C(C)=C/CC/C(C)=C/CN1C(=O)c2cccc(OC(=O)c3ccccc3)c2Nc2c(OC(=O)c3ccccc3)cc(OC(=O)c3ccccc3)cc21 [Compound 105, 4,6,8-tribenzoyloxy-10-farnesyl-5,10-dihydro-dibenzo[b,e][1,4] diazepin-11-one]",GI50,SF268 (CNS) [6],28.2 µM
same,GI50,[7],> 30 µM
same,GI50,[8],> 30 µM
same,GI50,[9],> 30 µM
same,GI50,[10],28.2 µM
